What all share (format): ADME, organism-based
The nature of data set [1]: Cmax in rat after 4 hrs. The following applies: in vivo.
Data set [2] in a line: AUC (0 to 6 hrs) in rat. Also noted: time < 6 hr. The following applies: plasma.
Data set [3] in a line: Drug level in rat after 6 hrs. The note with it: in vivo, read-out: Drug uptake.

We go through one molecule from ChEMBL document CHEMBL1139143, “Synthesis and structure-activity relationships of N-substituted spiropiperidines as nociceptin receptor ligands” (Bioorg Med Chem Lett, 2007).

Take `CC1(C)CCC(N2CCC3(CC2)C(=O)NCN3c2ccccc2)c2cc(Cl)c(Cl)cc21` (stereo not drawn): the peak level in data set [1] (Cmax) was 518 nM. For the same molecule, the AUC(0-t) (in general, exposure summed from dosing to a finite time, without extrapolation to infinity) at 6 h in data set [2] came to 2.11 µM·h. In addition, the concentration at 6 h in data set [3] was determined as 467 nM.
